Molecules are shown by their SMILES. ≈ marks a conversion by molar mass, not a printed value.

As usually defined, the MIC is the least concentration at which growth counts as inhibited.

Holding throughout (type): cell-based
For assay [1], the system named is Aspergillus flavus. The assay is described as follows: MIC, YAG medium. The note with it: 24 h at 35° C, MIC banded into grades; for MIC: Aspergillus flavus, 24 h, read-out: MIC grade, A. flavus. The essentials:
(§1)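 Spores from 5-day Sabouraud agar cultures were suspended in YAG medium (1% glucose, 1% ammonium chloride, 0.5% yeast extract) at final inocula of 1−2×10^4 cfu/mL against doubling dilutions of compound (50-0.05 mg/L; 0.5-0.0005 mg/L on repeat). Plates were incubated 24 h at 35° C. MIC was the lowest concentration giving >70% growth inhibition by OD485 versus drug-free control.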

Assay [2] has as its system Aspergillus fumigatus AF210. As to the kind of experiment: MIC, YAG medium. The following applies: 24 h at 35° C, MIC banded into grades; for MIC: Aspergillus fumigatus, read-out: MIC grade, A. fumigatus 210. The essentials: as §1
In assay [3] the test system is Aspergillus fumigatus AF293. The assay is described as follows: MIC, YAG medium. The note with it: 24 h at 35° C, MIC banded into grades; for MIC: Aspergillus fumigatus, read-out: MIC grade, A. fumigatus. The essentials: as §1
Assay [4] has as its system Aspergillus niger. As to the kind of experiment: MIC, YAG medium. The note with it: 24 h at 35° C, MIC banded into grades; for MIC: Aspergillus niger, read-out: MIC grade, A. niger. The essentials:
as §1

Assay [5] has as its system Aspergillus terreus AT49. The assay is described as follows: MIC, YAG medium. The following applies: 24 h at 35° C, MIC banded into grades; for MIC: Aspergillus terreus, read-out: MIC grade, A. terreus 49. The essentials: as §1
For assay [6], the system named is Aspergillus terreus AT4. As to the kind of experiment: MIC, YAG medium. The following applies: 24 h at 35° C, MIC banded into grades; for MIC: Aspergillus terreus, read-out: MIC grade, A. terreus. The essentials: as §1
The test system of assay [7] is Aspergillus flavus. As to the kind of experiment: MIC, RPMI medium. The following applies: MIC banded into grades; for MIC: Aspergillus flavus, read-out: MIC grade, A. flavus. The essentials: (§2)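 MIC taken as lowest drug level inhibiting growth by >80% relative to drug-free wells, read as OD at 485 nm after 24-48 h at 35° C. Organisms at 1−2×10^4 cfu/mL in RPMI (2% glucose, 0.135 M MOPS, pH 7.0) exposed to doubling dilutions spanning 50-0.05 mg/L.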

The test system of assay [8] is Aspergillus fumigatus AF210. As to the kind of experiment: MIC, RPMI medium. The note with it: for MIC grade, A. fumigatus 210: MIC banded into grades; for MIC: Aspergillus fumigatus, AF210, MIC banded into grades, read-out: MIC grade, A. fumigatus 210. The essentials:
as §2

The subject of assay [9] is Aspergillus fumigatus AF293. The assay is described as follows: MIC, RPMI medium. The note with it: for MIC grade, A. fumigatus: MIC banded into grades; for MIC: Aspergillus fumigatus, AF293, MIC banded into grades, read-out: MIC grade, A. fumigatus. The essentials:
as §2

For assay [10], the system named is Aspergillus niger. As to the kind of experiment: MIC, RPMI medium. The following applies: MIC banded into grades; for MIC: Aspergillus niger, read-out: MIC grade, A. niger. The essentials:
as §2

Assay [11] relates to Aspergillus terreus AT49. The assay is described as follows: MIC, RPMI medium. The note with it: for MIC grade, A. terreus 49: MIC banded into grades; for MIC: Aspergillus terreus, AT49, MIC banded into grades, read-out: MIC grade, A. terreus 49. The essentials: as §2
Assay [12] relates to Aspergillus terreus AT4. As to the kind of experiment: MIC, RPMI medium. The following applies: for MIC grade, A. terreus: MIC banded into grades; for MIC: Aspergillus terreus, AT4, MIC banded into grades, read-out: MIC grade, A. terreus. The essentials: as §2

Take `COC(=O)Cn1ccc(C2CCC2)c1C(=O)C(=O)Nc1ccc(N2CCN(c3cc(C)cc(C)n3)CC2)cc1` [Example 107, (3-Cyclobutyl-2-{4-[4-(4,6-dimethyl-pyridin-2-yl)-piperazin-1-yl]-phenylaminooxalyl}-pyrrol-1-yl)-acetic acid methyl ester]: the “MIC grade, A. flavus” value in [1] and in assay [7] was 1 (a grade of 1 represents an MIC of greater than 10 mg/L) throughout. The “MIC grade, A. fumigatus 210” value in assay [2] was 3 (A grade of 3 represents an MIC of less than 1 mg/L); in assay [8], 2 (A grade of 2 represents an MIC of from 1 to 10 mg/L). Moreover, the “MIC grade, A. fumigatus” value in assay [3] and in assay [9] was 3 (A grade of 3 represents an MIC of less than 1 mg/L) each time. The “MIC grade, A. niger” value in assay [4] and in assay [10] was 1 (a grade of 1 represents an MIC of greater than 10 mg/L) in each case. Moreover, the “MIC grade, A. terreus 49” value in assay [5] and in assay [11] was 1 (a grade of 1 represents an MIC of greater than 10 mg/L) in each case. Further, the “MIC grade, A. terreus” value in [6] and in [12] was 1 (a grade of 1 represents an MIC of greater than 10 mg/L) each time.

With `Cc1cc(-c2ccccc2)c(C(=O)C(=O)Nc2cccc3c(N4CCN(C)CC4)cccc23)n1C` [Example 49, 2-(1,5-Dimethyl-3-phenyl-1H-pyrrol-2-yl)-N-[5-(4-methyl-piperazin-1-yl)-naphthalen-1-yl]-2-oxo-acetamide], the MIC in [1] was less than 1 mg/L; in [2] it was 1 to 10 mg/L (≈ 2.14 to 21.4 µM); in assay [3], 1 to 10 mg/L (≈ 2.14 to 21.4 µM); in assay [4], more than 10 mg/L; in [5], less than 1 mg/L; in assay [6], more than 10 mg/L. The MIC was 1 to 10 mg/L (≈ 2.14 to 21.4 µM) in assay [7]; more than 10 mg/L in [8]; 1 to 10 mg/L (≈ 2.14 to 21.4 µM) in assay [9]; more than 10 mg/L in assay [10]; 1 to 10 mg/L (≈ 2.14 to 21.4 µM) in [11]; 1 to 10 mg/L (≈ 2.14 to 21.4 µM) in [12].

In the case of `CCOC(=O)n1c(C)cc(-c2ccccc2)c1C(=O)C(=O)Nc1ccc(N2CCN(c3cc(C)cc(C)n3)CC2)cc1` [Example 55, 2-{4-[4-(4,6-Dimethyl-pyridin-2-yl)-piperazin-1-yl]-phenylaminooxalyl}-5-methyl-3-phenyl-pyrrole-1-carboxylic acid ethyl ester], the “MIC grade, A. flavus” value in [1] and in assay [7] was 1 (a grade of 1 represents an MIC of greater than 10 mg/L) each time. Also, the “MIC grade, A. fumigatus 210” value was 2 (A grade of 2 represents an MIC of from 1 to 10 mg/L) in assay [2] and 1 (a grade of 1 represents an MIC of greater than 10 mg/L) in assay [8]. Besides, the results for the “MIC grade, A. fumigatus” value in [3] and in [9] were 2 (A grade of 2 represents an MIC of from 1 to 10 mg/L) and 1 (a grade of 1 represents an MIC of greater than 10 mg/L), respectively. For the same molecule, the “MIC grade, A. niger” value in [4] and in assay [10] was 1 (a grade of 1 represents an MIC of greater than 10 mg/L) throughout. The “MIC grade, A. terreus 49” value in assay [5] is reported as 2 (A grade of 2 represents an MIC of from 1 to 10 mg/L); in assay [11] it was 1 (a grade of 1 represents an MIC of greater than 10 mg/L). Also, the “MIC grade, A. terreus” value in assay [6] and in assay [12] was 1 (a grade of 1 represents an MIC of greater than 10 mg/L) throughout.

As for `CC(=O)NCCn1c(C)cc(-c2ccccc2)c1C(=O)C(=O)Nc1ccc(N2CCN(c3cc(C)cc(C)n3)CC2)cc1` [Example 65, 2-[1-(2-Acetylamino-ethyl)-5-methyl-3-phenyl-1H-pyrrol-2-yl]-N-{4-[4-(4,6-dimethyl-pyridin-2-yl)-piperazin-1-yl]-phenyl}-2-oxo-acetamide], the MIC in assay [1], in assay [2], in [3], in [4], in assay [5] and in assay [6] was more than 10 mg/L each time. Moreover, the MIC in [7], in assay [8], in assay [9], in assay [10], in assay [11] and in assay [12] was more than 10 mg/L in each case.

For the molecule `COCCn1ccc(C(C)C)c1C(=O)C(=O)Nc1ccc(N2CCN(c3cc(C)cc(C)n3)CC2)cc1` [Example 83, N-{4-[4-(4,6-Dimethyl-pyridin-2-yl)-piperazin-1-yl]-phenyl}-2-[3-isopropyl-1-(2-methoxy-ethyl)-1H-pyrrol-2-yl]-2-oxo-acetamide], the MIC in assay [1] is more than 10 mg/L; in assay [2], 1 to 10 mg/L (≈ 1.99 to 19.9 µM); in assay [3], 1 to 10 mg/L (≈ 1.99 to 19.9 µM); in [4], more than 10 mg/L; in assay [5] it was 1 to 10 mg/L (≈ 1.99 to 19.9 µM); in [6], 1 to 10 mg/L (≈ 1.99 to 19.9 µM). Besides, the MIC in assay [7], in [8], in assay [9], in assay [10], in assay [11] and in [12] was more than 10 mg/L each time.

`COCCn1c(C)c(F)c(-c2ccccc2)c1C(=O)C(=O)Nc1ccc(N2CCN(c3cc(C)cc(C)n3)CC2)cc1` [Example 94, N-{4-[4-(4,6-Dimethyl-pyridin-2-yl)-piperazin-1-yl]-phenyl}-2-[4-fluoro-1-(2-methoxy-ethyl)-5-methyl-3-phenyl-1H-pyrrol-2-yl]-2-oxo-acetamide]: the MIC was 1 to 10 mg/L (≈ 1.76 to 17.6 µM) in assay [1]; less than 1 mg/L in assay [2]; less than 1 mg/L in assay [3]; 1 to 10 mg/L (≈ 1.76 to 17.6 µM) in assay [4]; less than 1 mg/L in [5]; less than 1 mg/L in assay [6]. Further, the MIC is more than 10 mg/L in assay [7]; 1 to 10 mg/L (≈ 1.76 to 17.6 µM) in assay [8]; less than 1 mg/L in [9]; 1 to 10 mg/L (≈ 1.76 to 17.6 µM) in [10]; 1 to 10 mg/L (≈ 1.76 to 17.6 µM) in assay [11]; 1 to 10 mg/L (≈ 1.76 to 17.6 µM) in assay [12].

With `Cc1cc(C)nc(N2CCN(c3ccc(NC(=O)C(=O)c4c(-c5ccccc5)c(C)cn4C)cc3)CC2)c1` [Example 18, 2-(1,4-Dimethyl-3-phenyl-1H-pyrrol-2-yl)-N-{4-[4-(4,6-dimethyl-pyridin-2-yl)-piperazin-1-yl]-phenyl}-2-oxo-acetamide], the minimum inhibitory concentration (MIC) in assay [1] is less than 1 mg/L; in assay [2], less than 1 mg/L; in assay [3], less than 1 mg/L; in [4], more than 10 mg/L; in assay [5] it was less than 1 mg/L; in assay [6], less than 1 mg/L. Further, the MIC in assay [7] was 1 to 10 mg/L (≈ 1.97 to 19.7 µM); in [8] it was less than 1 mg/L; in [9], less than 1 mg/L; in assay [10] it was more than 10 mg/L; in assay [11] it was less than 1 mg/L; in assay [12] it was less than 1 mg/L.

As to `CCCOCCn1c(C)cc(-c2ccccc2)c1C(=O)C(=O)Nc1ccc(N2CCN(c3cc(C)cc(C)n3)CC2)cc1` [Example 140, N-{4-[4-(4,6-Dimethyl-pyridin-2-yl)-piperazin-1-yl]-phenyl}-2-[5-methyl-3-phenyl-1-(2-propoxy-ethyl)-1H-pyrrol-2-yl]-2-oxo-acetamide], the MIC in [1] was 1 to 10 mg/L (≈ 1.72 to 17.2 µM); in [2], less than 1 mg/L; in assay [3] it was 1 to 10 mg/L (≈ 1.72 to 17.2 µM); in [4], 1 to 10 mg/L (≈ 1.72 to 17.2 µM); in assay [5], 1 to 10 mg/L (≈ 1.72 to 17.2 µM); in assay [6], 1 to 10 mg/L (≈ 1.72 to 17.2 µM). Moreover, the MIC in [7], in assay [8], in assay [9], in assay [10], in [11] and in [12] was more than 10 mg/L each time.

For the origin of these results see patent US8993574B2, “Pyrrole antifungal agents” (F2G Ltd, priority 2008, dated 2015).
